# Measurements reported in patent US6852696B2, “Inhibitors of glycosaminoglycans” (The University of Texas System, priority 1999, dated 2005).
# What was measured:
# DO11.10 T cells = test: DO11.10 T cell proliferation triggered by splenic DC and OVA peptide (3H-thymidine uptake); type: cell-based, mice
# Method: FIGS. 7A-C. Impact of tetrameric LIP on cytokine production during antigen presentation. (FIG. 7A) XS52 DC (0.2×10^6 cells/well) were cultured in the presence or absence of the KLH-reactive CD4^+ Thl clone HDK-1 (0.2×10^6 cells/well) and/or KLH (100 μg/ml). Culture supernatants collected at 24 hrs were examined for the indicated cytokines by ELISA. Data shown are the means+/−s.e.m. from triplicate samples. (FIG. 7B) XS52 DC and HDK-1 T cells were co-cultured with KLH in the presence of the indicated concentrations of Pep-1. Culture supernatants collected at 24 hrs were examined for the indicated cytokines by ELISA. (FIG. 7C) CD4^+ T cells isolated from DO11.10 transgenic mice (5×10^4 cells/well) were co-cultured with the indicated numbers of splenic DC isolated from BALB/c mice and the OVA peptide (2 μg/ml) in the presence of 500 μg/ml of Pep-1 (open circles), RP (triangles), or DMSO alone (closed circles). Co-cultures of CD4^+ T cells and DC in the absence of OVA peptide served as a control (square). All the cultures were examined for ^3H-thymidine uptake on Day 3. […]
# FIGS. 9A-G. DC-associated HA and DC-dependent T cell proliferation. […] Statistically significant differences assessed by a two-tailed Student's t-test for comparing two groups or by analysis of variance (ANOVA) followed by LSD for multiple comparisons are indicated by asterisks (*P<0.05, **P<0.01). […]
# XS52 DC = test: Cytokine secretion by XS52 DC stimulated with HA fragments (ELISA); type: cell-based; conditions: 500 μg/ml; HA fragments 50 μg/ml
# Method: FIGS. 5A-C. Impact of Pep-1 on HA degradation products. (FIG. 5A) 96 well plates were coated with biotinylated-HA (0.1 μg/ml) and pretreated with 500 μg/ml of Pep-1 (open circles), RP (closed circles), or PBS alone (triangles) for 3 hours. These plates were then incubated for 30 min in the presence of HAase (from bovine testis). After extensive wash, the amounts of remaining biotinylated HA on the plates were determined by addition of streptavidin-alkaline phosphatase followed by p-nitrophenyl phosphate substrate. The % HA digestion was calculated from the optical densities. The data shown are the means+/−s.e.m.from triplicate samples analyzed with a hyperbolic model. (FIG. 5B) The impact of Pep-1 on HA digestion and on cell adhesion was examined in parallel using the HA-coated plates prepared simultaneously. Pep-1, RP, or PBS alone was added to the HA-coated plates as above and their effects on HAase-mediated HA degradation and on the adhesion of ^35S-labeled BW5147 thymoma cells were compared. The data shown are the means+/−s.e.m.(n=3) of 50% inhibition doses of HAase (left) and % cell adhesion (right). […] (FIG. 5C) Low molecular weight HA fragments were prepared by sonication of HMW HA followed by overnight digestion with HAase at 37° C. […] Results are expressed as the means+/−s.e.m.from triplicate samples. […]
sequence,measurement,setting,value
GAHWQFNALTVR [Pep-1],"inhibition of DC-dependent, antigen-specific T cell proliferation",DO11.10 T cells; 300 μM (FIG. 9B),inhibited
same,inhibition of activation of naive CD4+ T cells by splenic DC,DO11.10 T cells; 500 μg/ml (FIG. 7C),inhibited the activation of immunologically naive CD4+ T cells
same,inhibition of IL-6 secretion triggered by HA fragments,XS52 DC,inhibited the secretion of both cytokines almost completely
same,inhibition of TNFα secretion triggered by HA fragments,XS52 DC,inhibited the secretion of both cytokines almost completely
